Data from patent US12435066B2, “Substituted tricyclic compounds” (LUPIN LIMITED, priority 2019, dated 2025).

Legend:
pERK in DLD1 cells = assay: ERK phosphorylation assay after EGF stimulation; format: cell-based; conditions: Homo sapiens, DLD-1, compound 2 h, 200 ng/ml hEGF 5 minutes, alphascreen pERK, read-out: ERK phosphorylation inhibition IC50
Description: Example-128: ERK Phosphorylation Assay Protocol
Compounds were tested for their ability to inhibit pERK after EGF stimulation in DLD1 cells. Cells were seeded at 0.2 million cells per well in 96 well cell binding tissue culture plate in 100 μL complete media and were allowed to settle overnight (16 to 20 h). On the following day, cells were treated with various concentrations of test compounds for 2 h followed by stimulation with 200 ng/ml hEGF (diluted in PBS) for 5 minutes. Cells were then washed once with PBS and lysed in freshly prepared lysis buffer (provided with alphascreen surefire ERK1/2 p-T202/Y204 assay kit, cat no: TGRESB10K, Perkin Elmer). Lysis was carried out in plate shaker for 10-15 mins. Lysate was transferred to […] white opti-plate (Perkin Elmer) and alphascreen for pERK was carried out as per manufacturer's instructions. Plate was read after 2 h incubation in plate shaker at […] 300 RPM, 25-28° C.

hSOS1 and hKRASG12C = target: T1, hSOS1 and hKRASG12C (Homo sapiens, UniProt Q07889); assay: biochemical
T1 sequence (Q07889 564-1049): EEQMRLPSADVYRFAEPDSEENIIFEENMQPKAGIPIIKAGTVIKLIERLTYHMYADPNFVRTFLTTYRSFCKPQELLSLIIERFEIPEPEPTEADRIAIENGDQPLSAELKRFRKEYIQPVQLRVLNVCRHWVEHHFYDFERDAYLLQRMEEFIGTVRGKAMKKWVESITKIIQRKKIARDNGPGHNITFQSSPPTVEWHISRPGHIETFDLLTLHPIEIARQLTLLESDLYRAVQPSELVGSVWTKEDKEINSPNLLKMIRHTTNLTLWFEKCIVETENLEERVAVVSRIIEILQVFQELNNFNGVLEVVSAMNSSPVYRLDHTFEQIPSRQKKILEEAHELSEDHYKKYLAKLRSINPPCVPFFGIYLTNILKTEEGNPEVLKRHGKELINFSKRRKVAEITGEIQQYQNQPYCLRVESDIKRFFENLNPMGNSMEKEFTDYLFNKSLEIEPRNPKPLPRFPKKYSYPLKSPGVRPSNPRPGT
Description: Interaction assay was conducted to evaluate the ability of the compounds to disrupt the protein-protein interactions between hSOS1 and hKRASG12C. Inhibitory effect of compounds on GST-hSOS1, 564-1049aa expressed and purified in-house and HIS-hKRASG12C (R06-32DH, SignalChem) interaction was assessed using HTRF detection technology in biochemical assay. Compounds were pre-incubated with 10-50 nM working solution of hSOS1 per well of a 384 well plate (Perkin Elmer, Cat #6007290) for 10 min at 20° C. in the assay buffer containing 5 mM HEPES, pH 7.4, 150 mM NaCl, 10 mM EDTA, 1 mM DTT, 0.05% BSA fraction V and 0.0025% Igepal. Reaction was initiated by adding 100-300 nM working solution of hKRASG12C in assay buffer. Total assay volume was 15 μL. Reaction was continued for 30-60 min at 20° C. Then detection solution containing MAb Anti-GST-d2 (#61GSTDLA, Cisbio BioAssays) and MAb Anti-HIS-Tb (#61HISTLA, Cisbio BioAssays), all prepared in HTRF detection buffer (#61DB10RDF, Cisbio BioAssays) was added and further incubated for 30-60 min at 20° C. HTRF signal was recorded in PHERAStar microplate reader. Ratio of signal obtained at 665 nm and 620 nm was used to compute the percent inhibition of compound utilizing the following formula:
Positive control=hSOS1+hKRASG12C+MAb Anti-GST-d2+Mab Anti-HIS-Tb Negative control=hKRASG12C+MAb Anti-GST-d2+MAb Anti-HIS-Tb

[1] = target: T2, hSOS1 mediated nucleotide exchange on hKRASG12C (Homo sapiens, UniProt Q07889); assay: biochemical
T2 sequence (Q07889 564-1049): T1 sequence (Q07889 564-1049)
Description: Example-127: Guanine Nucleotide Exchange Assay (GNEA)
GNEA assay was conducted to evaluate the effects of compounds on the nucleotide exchange on hKRASG12C mediated by hSOS1. Inhibitory effect of compounds on HIS-hSOS1, 564-1049aa mediated GTP loading onto GST-hKRASG12C, 1-169aa both expressed and purified in-house was assessed using HTRF detection technology in biochemical assay. Compounds were pre-incubated with hSOS1 working solution containing 10-50 nM hSOS1 and 200 nM EDA-GTP-DY-647P1 (Custom manufactured, Jena Biosciences) per well of a 384 well plate (Perkin Elmer, Cat #6007290) for 10 min at 20° C. in the assay buffer containing 10 mM HEPES, pH 7.4, 150 mM NaCl, 5 mM MgCl2, 1 mM DTT, 0.05% BSA fraction V and 0.0025% Igepal. Reaction was initiated by adding working solution of hKRASG12C containing 25-125 nM hKRASG12C and MAb Anti-GST-Tb (#61GSTTLA, Cisbio BioAssays) in assay buffer. Total assay volume was 15 μL. Reaction was continued for 30-60 min at 20° C. HTRF signal was recorded in PHERAStar microplate reader. Ratio of signal obtained at 665 nm and 620 nm was used to compute the percent inhibition of compound as follows.
Where, Positive control=hSOS1+EDA-GTP-DY-647P1+hKRASG12C+MAb Anti-GST-Tb Negative control=EDA-GTP-DY-647P1+hKRASG12C+MAb Anti-GST-Tb

Structure (SMILES) | IC50 (pERK in DLD1 cells) [nM] | IC50 (hSOS1 and hKRASG12C) [nM] | IC50 [1] [nM]
COCC1(O)CCN(c2cc3c(N[C@H](C)c4cccc(C(F)(F)C(C)(C)O)c4F)nc(C)nc3c3c2CCC3)CC1 [Compound 63, (R)-1-(4-((1-(3-(1,1-difluoro-2-hydroxy-2-methylpropyl)-2-fluorophenyl)ethyl)amino)-2-methyl-8,9-dihydro-7H-cyclopenta[h]quinazolin-6-yl)-4-(methoxymethyl)piperidin-4-ol] | 1 to 200 | 1 to 10 | 1 to 30
Cc1nc(N[C@H](C)c2cccc(C(F)(F)C(C)(C)O)c2F)c2cc(N3CCOCC3)c3c(c2n1)CCC3 [Compound 59, (R)-1,1-difluoro-1-(2-fluoro-3-(1-((2-methyl-6-morpholino-8,9-dihydro-7H-cyclopenta[h]quinazolin-4-yl)amino)ethyl)phenyl)-2-methylpropan-2-ol] | 1 to 200 | 1 to 10 | 1 to 30
COCC(F)(F)c1cccc([C@@H](C)Nc2nc(C)nc3c4c(c(N5CC6(COC6)C5)cc23)CCC4)c1F [Compound 24, (R)—N-(1-(3-(1,1-difluoro-2-methoxyethyl)-2-fluorophenyl)ethyl)-2-methyl-6-(2-oxa-6-azaspiro[3.3]heptan-6-yl)-8,9-dihydro-7H-cyclopenta[h]quinazolin-4-amine] | 1 to 200 | 1 to 10 | 31 to 70
COCC1CCN(c2cc3c(N[C@H](C)c4cc(N)cc(C(F)(F)F)c4)nc(C)nc3c3c2CCC3)CC1 [Compound 54, (R)—N-(1-(3-amino-5-(trifluoromethyl)phenyl)ethyl)-6-(4-(methoxymethyl)piperidin-1-yl)-2-methyl-8,9-dihydro-7H-cyclopenta[h]quinazolin-4-amine] | 1 to 200 | 11 to 20 | 31 to 70
Cc1nc(N[C@H](C)c2cc(N)cc(C(F)(F)F)c2)c2cc(N3CC4(COC4)C3)c3c(c2n1)CCC3 [Compound 33, (R)—N-(1-(3-amino-5-(trifluoromethyl)phenyl)ethyl)-2-methyl-6-(2-oxa-6-azaspiro[3.3]heptan-6-yl)-8,9-dihydro-7H-cyclopenta[h]quinazolin-4-amine] | 1 to 200 | 1 to 10 | 1 to 30
Cc1nc(N[C@H](C)c2cc(N)cc(C(F)(F)F)c2)c2cc(N3CCC(C(C)(C)O)CC3)c3c(c2n1)CCC3 [Compound 51, (R)-2-(1-(4-((1-(3-amino-5-(trifluoromethyl)phenyl)ethyl)amino)-2-methyl-8,9-dihydro-7H-cyclopenta[h]quinazolin-6-yl)piperidin-4-yl)propan-2-ol] | 1 to 200 | 1 to 10 | 1 to 30
Cc1nc(N[C@H](C)c2cccc(C(F)(F)[C@@H](C)O)c2F)c2cc(N3CC4(COC4)C3)c3c(c2n1)CCC3 (single isomer, unassigned) [Compound 73b] | 1 to 200 | 1 to 10 | 1 to 30
Cc1nc(NC(C)c2cc(N)cc(C(F)F)c2)c2cc(N3CC4(COC4)C3)c3c(c2n1)CCC3 (racemic) [Compound 78, (R/S)—N-(1-(3-amino-5-(difluoromethyl)phenyl)ethyl)-2-methyl-6-(2-oxa-6-azaspiro[3.3]heptan-6-yl)-8,9-dihydro-7H-cyclopenta[h]quinazolin-4-amine] | 1 to 200 | 1 to 10 | 1 to 30
COC[C@H]1CN(c2cc3c(N[C@H](C)c4cccc(C(F)(F)CO)c4F)nc(C)nc3c3c2CCC3)CCO1 [Compound 35, 2,2-difluoro-2-(2-fluoro-3-((R)-1-((6-((R)-2-(methoxymethyl)morpholino)-2-methyl-8,9-dihydro-7H-cyclopenta[h]quinazolin-4-yl)amino)ethyl)phenyl)ethan-1-ol] | 1 to 200 | 1 to 10 | 1 to 30
COCC1CN(c2cc3c(N[C@H](C)c4cc(N)cc(C(F)(F)F)c4)nc(C)nc3c3c2CCC3)C1 [Compound 26, (R)—N-(1-(3-amino-5-(trifluoromethyl)phenyl)ethyl)-6-(3-(methoxymethyl)azetidin-1-yl)-2-methyl-8,9-dihydro-7H-cyclopenta[h]quinazolin-4-amine] | 1 to 200 | 1 to 10 | 31 to 70
Cc1nc(N[C@H](C)c2cc(N)cc(C(F)(F)F)c2)c2cc(N3CC4(CC(O)C4)C3)c3c(c2n1)CCC3 [Compound 52, (R)-2-(4-((1-(3-amino-5-(trifluoromethyl)phenyl)ethyl)amino)-2-methyl-8,9-dihydro-7H-cyclopenta[h]quinazolin-6-yl)-2-azaspiro[3.3]heptan-6-ol] | 1 to 200 | 1 to 10 | 1 to 30
Cc1nc(N[C@H](C)c2cccc(C(F)(F)C(C)(C)O)c2F)c2cc(N3CCC(O)(CO)CC3)c3c(c2n1)CCC3 [Compound 85, (R)-1-(4-((1-(3-(1,1-difluoro-2-hydroxy-2-methylpropyl)-2-fluorophenyl)ethyl)amino)-2-methyl-8,9-dihydro-7H-cyclopenta[h]quinazolin-6-yl)-4-(hydroxymethyl) piperidin-4-ol] | 1 to 200 | 1 to 10 | 1 to 30
Cc1nc(N[C@H](C)c2cccc(C(F)(F)C(C)(C)O)c2F)c2cc(N3CC4(COC4)C3)c3c(c2n1)CCC3 [Compound 10, (R)-1,1-difluoro-1-(2-fluoro-3-(1-((2-methyl-6-(2-oxa-6-azaspiro[3.3]heptan-6-yl)-8,9-dihydro-7H-cyclopenta[h]quinazolin-4-yl)amino)ethyl)phenyl)-2-methylpropan-2-ol] | 1 to 200 | 1 to 10 | 1 to 30
Cc1nc(N[C@H](C)c2cc(N)cc(C(F)(F)F)c2)c2cc(N3CCC(O)CC3)c3c(c2n1)CCC3 [Compound 48, (R)-1-(4-((1-(3-amino-5-(trifluoromethyl)phenyl)ethyl)amino)-2-methyl-8,9-dihydro-7H-cyclopenta[h]quinazolin-6-yl)piperidin-4-ol] | 1 to 200 | 1 to 10 | 1 to 30
Cc1nc(N[C@H](C)c2cccc(C(F)(F)C(C)(C)O)c2F)c2cc(N3CC[C@@](C)(O)C3)c3c(c2n1)CCC3 (single isomer, unassigned) [Compound 61a] | 1 to 200 | 1 to 10 | 1 to 30
Cc1nc(N[C@H](C)c2cc(N)cc(C(F)(F)F)c2)c2cc(N3CCN(C)C(=O)C3)c3c(c2n1)CCC3 [Compound 56, (R)-4-(4-((1-(3-amino-5-(trifluoromethyl)phenyl)ethyl)amino)-2-methyl-8,9-dihydro-7H-cyclopenta[h]quinazolin-6-yl)-1-methylpiperazin-2-one] | 1 to 200 | 1 to 10 | 1 to 30
Cc1nc(N[C@H](C)c2cc(N)cc(C(F)(F)F)c2)c2cc(N3CCC(CO)CC3)c3c(c2n1)CCC3 [Compound 49, (R)-(1-(4-((1-(3-amino-5-(trifluoromethyl)phenyl)ethyl)amino)-2-methyl-8,9-dihydro-7H-cyclopenta[h]quinazolin-6-yl)piperidin-4-yl)methanol] | 1 to 200 | 1 to 10 | 1 to 30
Cc1nc(N[C@H](C)c2cc(N)cc(C(F)(F)F)c2)c2cc(N3CCC(C)(O)CC3)c3c(c2n1)CCC3 [Compound 50, (R)-1-(4-((1-(3-amino-5-(trifluoromethyl)phenyl)ethyl)amino)-2-methyl-8,9-dihydro-7H-cyclopenta[h]quinazolin-6-yl)-4-methylpiperidin-4-ol] | 1 to 200 | 1 to 10 | 1 to 30
Cc1nc(N[C@H](C)c2cc(N)cc(C(F)(F)F)c2)c2cc(N3CCOCC3)c3c(c2n1)CC(C)O3 (mixture of isomers) [Compound 117a, (R/S)—N—((R)-1-(3-amino-5-(trifluoromethyl)phenyl)ethyl)-2,8-dimethyl-6-morpholino-8,9-dihydrofuro[2,3-h]quinazolin-4-amine] | 1 to 200 | 1 to 10 | 31 to 70
COCC1CCN(c2cc3c(N[C@H](C)c4cccc(C(F)(F)C(C)(C)O)c4F)nc(C)nc3c3c2CCC3)CC1 [Compound 57, (R)-1,1-difluoro-1-(2-fluoro-3-(1-((6-(4-(methoxymethyl)piperidin-1-yl)-2-methyl-8,9-dihydro-7H-cyclopenta[h]quinazolin-4-yl)amino)ethyl)phenyl)-2-methylpropan-2-ol] | 1 to 200 | 1 to 10 | 1 to 30
